Data from paper PMC7505474, “Toll-like receptor 4-mediated inflammation triggered by extracellular IFI16 is enhanced by lipopolysaccharide binding” (PLoS Pathogens, 2020).
“Also recorded” adds a separate entry of the source. Like-named read-outs stand apart in the source and are kept apart here.

Columns and labels:
IFI16 [1] = molecular target: T1, IFI16 (Homo sapiens, UniProt Q16666); assay: Saturation binding ELISA, full-length IFI16 on immobilized LPS variants / lipid A
T1 construct: obtained with the full-length recombinant IFI16 protein; made in house
T1 sequence (Q16666 1-729 isoform Q16666-2): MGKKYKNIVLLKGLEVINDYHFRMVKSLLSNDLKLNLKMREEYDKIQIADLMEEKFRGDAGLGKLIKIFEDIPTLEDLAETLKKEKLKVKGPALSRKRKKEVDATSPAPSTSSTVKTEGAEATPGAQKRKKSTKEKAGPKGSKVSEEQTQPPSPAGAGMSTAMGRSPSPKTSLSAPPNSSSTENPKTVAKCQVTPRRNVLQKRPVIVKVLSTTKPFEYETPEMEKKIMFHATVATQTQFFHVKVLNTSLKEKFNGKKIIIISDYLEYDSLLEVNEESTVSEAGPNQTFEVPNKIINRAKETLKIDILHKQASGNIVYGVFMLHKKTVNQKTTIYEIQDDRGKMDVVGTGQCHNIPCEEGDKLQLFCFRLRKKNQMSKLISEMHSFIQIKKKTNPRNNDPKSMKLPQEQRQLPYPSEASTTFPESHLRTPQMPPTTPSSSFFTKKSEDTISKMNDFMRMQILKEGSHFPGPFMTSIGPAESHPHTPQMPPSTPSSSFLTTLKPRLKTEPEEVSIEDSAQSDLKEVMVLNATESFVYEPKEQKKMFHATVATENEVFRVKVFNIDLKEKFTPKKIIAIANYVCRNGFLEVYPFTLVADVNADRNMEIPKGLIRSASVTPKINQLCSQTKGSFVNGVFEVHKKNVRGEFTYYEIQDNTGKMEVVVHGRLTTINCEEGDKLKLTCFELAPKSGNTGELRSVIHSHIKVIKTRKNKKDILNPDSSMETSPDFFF
Method: (§1) For saturation binding experiments, microtiter plates (Nunc-Immuno MaxiSorp, Thermo Fischer Scientific) were coated with 2 μg/ml of recombinant IFI16 or 10 μg/ml of BSA or GST in 1X PBS O/N at 4°C. After a washing step with 1X PBS and 0.25% Tween 20 (v/v, Sigma-Aldrich) and blocking step with 1X PBS with 3% BSA and 0.05% Tween 20 for 1 h, increasing concentrations of biotin-labeled LPS-EB, preincubated with 10 μg/ml of polymyxin B (PMB) when specified, were added to the wells and incubated for 1 h at room temperature (RT). Bound proteins were then detected using HRP-conjugated streptavidin. TMB solution (Thermo Fischer Scientific) was used for color development, and OD was measured at 450 nm. Alternatively, microtiter plates were coated with 10 μg/ml of LPS-EB, LPS-PG, LPS-RS, LPS-F583, MPLA, DPLA, or detoxLPS in 1X PBS for 24 h at RT. After washing and blocking for 2 h, increasing concentrations of IFI16, PYRIN, HINA, or HINB were added to the wells, preincubated with 10 μg/ml of PMB when specified, for 2 h. Anti-IFI16 antibodies against the N- or the C-terminus of the protein and HRP-labeled anti-rabbit IgG were then added as primary and secondary antibodies, respectively. The binding was detected as described above.
(§2) For competitive ELISA, microtiter plates were coated with 1 μg/ml LPS-EB in 1X PBS O/N at RT. Successively, a constant amount of 2 μg/ml IFI16 was added to the wells in the presence of increasing concentration of LPS-EB, MPLA or detoxLPS. After incubation for 4 h at RT under gentle agitation, plates were incubated with an anti-IFI16 N-terminal primary antibody and an HRP-conjugated anti-rabbit IgG secondary antibody. The binding was detected as described above. To determine KD constants, saturation binding experiments were performed, and data were fitted to the Langmuir isotherm equation, which describes the equilibrium binding of the ligands. Data are reported as sigmoid concentration-response curves plotted against log concentrations.

PYRIN = molecular target: T2, PYRIN (Homo sapiens, UniProt Q16666); assay: Saturation binding ELISA, PYRIN domain on immobilized LPS variants / lipid A
T2 construct: the N-terminal portion containing the pyrin domain (PYRIN); made in house; host or cells: bacteria (pET30a vector)
T2 sequence (Q16666 1-88 limits assumed): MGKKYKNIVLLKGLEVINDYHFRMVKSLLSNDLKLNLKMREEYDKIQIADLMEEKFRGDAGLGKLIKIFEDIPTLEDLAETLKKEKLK
Method: as §1, §2

HINA = molecular target: T3, HINA (Homo sapiens, UniProt Q16666); assay: Saturation binding ELISA, HINA domain on immobilized LPS variants / lipid A
T3 construct: each of the 200 amino acid-long HIN domains (namely HINA or HINB); made in house; host or cells: bacteria (pET30a vector)
T3 sequence (Q16666 189-389 limits assumed): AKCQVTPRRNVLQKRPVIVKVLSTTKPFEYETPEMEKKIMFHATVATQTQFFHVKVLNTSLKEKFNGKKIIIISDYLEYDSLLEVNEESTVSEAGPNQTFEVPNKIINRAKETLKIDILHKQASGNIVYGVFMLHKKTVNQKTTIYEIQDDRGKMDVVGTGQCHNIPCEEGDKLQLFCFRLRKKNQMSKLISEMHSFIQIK
Method: as §1, §2

HINB = molecular target: T4, HINB (Homo sapiens, UniProt Q16666); assay: Saturation binding ELISA, HINB domain on immobilized LPS variants / lipid A
T4 construct: each of the 200 amino acid-long HIN domains (namely HINA or HINB); made in house; host or cells: bacteria (pET30a vector)
T4 sequence (Q16666 562-761 limits assumed): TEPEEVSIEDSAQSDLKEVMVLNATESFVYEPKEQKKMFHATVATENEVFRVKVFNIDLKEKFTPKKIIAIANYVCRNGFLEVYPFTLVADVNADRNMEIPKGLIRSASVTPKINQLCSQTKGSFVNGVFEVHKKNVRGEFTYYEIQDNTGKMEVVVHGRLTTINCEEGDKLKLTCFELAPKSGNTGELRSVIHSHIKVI
Method: as §1, §2

IFI16 [2] = molecular target: T1, IFI16; assay: Competition ELISA for IFI16 binding to immobilized LPS-EB; details: 1 μg/ml LPS-EB coated; 2 μg/ml IFI16; competitor 5 to 25 μg/ml
Method: as §2

IFI16 [3] = molecular target: T1, IFI16; assay: SPR, LPS-EB over CM5 IFI16-coated chip; format: binding; details: LPS-EB 3.125–100 nM over immobilized IFI16
Method: Recombinant IFI16 was covalently immobilized onto the surface of sensor CM5 chips via amine coupling as done for TLR4 and TLR4/MD2 complex. IFI16 was diluted to a concentration of 25 μg/ml in 10 mM sodium acetate at pH 4.0. The target capture level of IFI16 was of 1,926.6 response units (RUs). Increasing concentrations of LPS-EB, diluted in HBS-EP+ buffer, were flowed over the CM5 sensor chip coated with IFI16 at a flow rate of 30 μl/min at 25°C with an association time of 180 s and a dissociation phase of 600 s. A single regeneration step with 50 mM NaOH was performed following each analytic cycle. The KDs were evaluated using the BIAcore evaluation software (GE Healthcare) and the reliability of the kinetic constants calculated by assuming a 1:1 binding model supported by the quality assessment indicators values.

TLR4/MD2 receptor = molecular target: T5, TLR4/MD2 receptor (Homo sapiens, UniProt O00206+Q9Y6Y9); assay: SPR, analytes over immobilized TLR4/MD2; format: binding
T5 construct: purchased R&D Systems 3146-TM-050/CF
Method: The Biacore X100 (GE Healthcare) instrument was used for real-time binding interaction experiments. Recombinant TLR4 or TLR4/MD2 complex was covalently immobilized onto the surface of sensor CM5 (cat # BR100012, GE Healthcare) chips via amine coupling. TLR4 was diluted to a concentration of 10 μg/ml in 10 mM sodium acetate at pH 4.0, while TLR4/MD2 complex was diluted to a concentration of 20 μg/ml in the same buffer. Both proteins were injected on CM5 chips at a flow rate of 10 μl/min, upon activation of the carboxyl groups on the sensor surface with 7-min injection of a mixture of 0.2 M EDC and 0.05 M NHS. The remaining esters were blocked with 7-min injection of ethanolamine. Taking into account the ligands (TLR4 or TLR4/MD2) and analytes (IFI16, LPS-EB or IFI16/LPS-EB) molecular weights (MW) of 70 or 90 kDa, and 90, 10 or 100 kDa respectively, the appropriate ligand density (RL) on the chip was calculated according to the following equation: RL = (ligand MW/analyte MW) × Rmax × (1/Sm), where Rmax is the maximum binding signal and Sm corresponds to the binding stoichiometry. The target capture level of the TLR4 or TLR4/MD2 was of 596.0 or 1,223.9 response units (RUs), respectively. […] Increasing concentrations of endotoxin-free IFI16, LPS-EB or IFI16/LPS-EB complex were flowed over the CM5 sensor chip coated with TLR4 or TLR4/MD2 at a flow rate of 30 μl/min at 25°C with an association time of 120 s for IFI16 alone and the IFI16/LPS-EB complex, and 180 s for LPS-EB, and a dissociation phase of 180 s for IFI16 and IFI16/LPS-EB complex or 600 s for LPS-EB. A single regeneration step with 50 mM NaOH was performed following each analytic cycle. All the analytes tested were diluted in the HBS-EP+ buffer (GE Healthcare). […]

IFI16 [4] = molecular target: T1, IFI16; assay: Saturation binding ELISA, IFI16-coated plates challenged with biotin-LPS-EB
Method: as §1

[5] = 10 μg/ml immobilized LPS variant or lipid A; increasing full-length IFI16; ELISA 450 nm; read-out: Equilibrium dissociation constant (KD), IFI16
[6] = 10 μg/ml immobilized LPS variant or lipid A; increasing PYRIN domain; read-out: Equilibrium dissociation constant (KD), PYRIN
[7] = 10 μg/ml immobilized LPS variant or lipid A; increasing HINA domain; read-out: Equilibrium dissociation constant (KD), HINA
[8] = 10 μg/ml immobilized LPS variant or lipid A; increasing HINB domain; read-out: Equilibrium dissociation constant (KD), HINB

T5 sequence (O00206 24-631 limits assumed): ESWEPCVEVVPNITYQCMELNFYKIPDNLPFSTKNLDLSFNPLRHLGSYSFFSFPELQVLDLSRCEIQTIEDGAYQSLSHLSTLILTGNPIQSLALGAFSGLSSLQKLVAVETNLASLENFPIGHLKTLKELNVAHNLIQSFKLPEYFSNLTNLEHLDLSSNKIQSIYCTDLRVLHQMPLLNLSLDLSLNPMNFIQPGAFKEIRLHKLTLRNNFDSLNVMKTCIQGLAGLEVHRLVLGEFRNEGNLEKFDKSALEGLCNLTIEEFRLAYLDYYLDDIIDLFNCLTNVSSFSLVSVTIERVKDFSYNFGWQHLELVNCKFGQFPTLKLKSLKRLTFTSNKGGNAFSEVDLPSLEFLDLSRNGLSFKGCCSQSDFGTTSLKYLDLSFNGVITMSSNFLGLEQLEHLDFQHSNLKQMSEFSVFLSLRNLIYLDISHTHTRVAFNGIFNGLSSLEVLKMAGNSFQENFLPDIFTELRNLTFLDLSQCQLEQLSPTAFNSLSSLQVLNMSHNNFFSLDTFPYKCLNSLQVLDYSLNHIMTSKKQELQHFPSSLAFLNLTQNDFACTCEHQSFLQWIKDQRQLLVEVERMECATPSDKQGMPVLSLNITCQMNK
T5 sequence (Q9Y6Y9 17-160 limits assumed): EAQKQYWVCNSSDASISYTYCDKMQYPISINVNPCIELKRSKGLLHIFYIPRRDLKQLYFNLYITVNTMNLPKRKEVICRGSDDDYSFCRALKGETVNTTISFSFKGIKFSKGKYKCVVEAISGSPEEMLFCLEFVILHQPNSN

`CCCCCCCCCCCCCC(=O)O[C@H](CCCCCCCCCCC)CC(=O)O[C@@H]1[C@@H](NC(=O)C[C@@H](CCCCCCCCCCC)OC(=O)CCCCCCCCCCC)[C@H](OC[C@H]2O[C@H](OP(=O)(O)O)[C@H](NC(=O)C[C@H](O)CCCCCCCCCCC)[C@@H](OC(=O)C[C@H](O)CCCCCCCCCCC)[C@@H]2O)O[C@H](CO)[C@H]1OP(=O)(O)O` [DPLA, diphosphoryl lipid A from Escherichia coli F583] was tested, and the Kd (IFI16 [1]; read-out: Equilibrium dissociation constant (KD), IFI16; 10 μg/ml immobilized LPS variant or lipid A; increasing full-length IFI16; ELISA 450 nm) was 0.9 nM, the Kd (PYRIN; read-out: Equilibrium dissociation constant (KD), PYRIN; 10 μg/ml immobilized LPS variant or lipid A; increasing PYRIN domain) was 47.5 nM and the Kd (HINA; read-out: Equilibrium dissociation constant (KD), HINA; 10 μg/ml immobilized LPS variant or lipid A; increasing HINA domain) was 67.7 nM. It also gave a Kd (HINB; read-out: Equilibrium dissociation constant (KD), HINB; 10 μg/ml immobilized LPS variant or lipid A; increasing HINB domain) of 2.8 nM.

With `CCCCCCCCCCCCCC(=O)O[C@H](CCCCCCCCCCC)CC(=O)O[C@@H]1[C@@H](NC(=O)C[C@@H](CCCCCCCCCCC)OC(=O)CCCCCCCCCCC)[C@H](OC[C@H]2OC(O)[C@H](NC(=O)C[C@H](O)CCCCCCCCCCC)[C@@H](OC(=O)C[C@H](O)CCCCCCCCCCC)[C@@H]2O)O[C@H](CO)[C@H]1OP(=O)(O)O` (some centres unmarked) [MPLA, monophosphoryl lipid A from Escherichia coli F583] the Kd (IFI16 [1]; [5]) was 1.2 nM, the Kd (PYRIN; [6]) was 47.2 nM and the Kd (HINA; [7]) was 94.1 nM. For the same molecule, the Kd (HINB; [8]) was 2.7 nM and the “Competition for IFI16 binding to immobilized LPS-EB” value (“Competition for IFI16 binding” for short) (IFI16 [2]) was “much stronger reduction in IFI16 binding to LPS”.

“LPS from Escherichia coli F583 [LPS-F583]” gave a Kd (IFI16 [1]; [5]) of 4.3 nM.

“LPS from Escherichia coli O111:B4 [LPS-EB]” gave a Kd (IFI16 [1]; [5]) of 4.2 nM, a Kd (PYRIN; [6]) of 116 nM and a Kd (HINA; [7]) of 85.3 nM. The Kd (HINB; [8]) was 3.3 nM, the “kinetic association constant (Ka)” value (IFI16 [3]) was 11300 M⁻¹ s⁻¹ and the “kinetic dissociation constant (Kd)” value (IFI16 [3]; rate constant) was 0.00194 s⁻¹. The “Competition for IFI16 binding” value (IFI16 [2]) was “reduced IFI16 binding to immobilized LPS in a concentration-dependent manner”, the “dissociation rate constant (Kd)” value (TLR4/MD2 receptor) was 1e-06 s⁻¹ and the Ka (TLR4/MD2 receptor; association rate constant) was 6840 M⁻¹ s⁻¹. For the same molecule, the “dissociation rate constant (koff)” value (TLR4/MD2 receptor; dissociation rate constant) was 1e-06 s⁻¹, the Kd (TLR4/MD2 receptor; equilibrium dissociation constant, read-out: KD) was 0.147 nM and the Rmax (TLR4/MD2 receptor; maximum response) was 745.00 RU. For the same molecule, the Kd (TLR4/MD2 receptor; text / Fig 8C legend, read-out: equilibrium dissociation constant (KD)) was 0.15 nM.

“LPS from Porphyromonas gingivalis [LPS-PG]” gave a Kd (IFI16 [1]; [5]) of 12 nM, a Kd (PYRIN; [6]) of 46.9 nM and a Kd (HINA; [7]) of 84 nM. The Kd (HINB; [8]) was 1.6 nM.

For “LPS from Rhodobacter sphaeroides [LPS-RS]”, the Kd (IFI16 [1]; [5]) was 19.3 nM.

With “biotin-labeled LPS from Escherichia coli O111:B4 [biotin-LPS-EB]” the “biotin-LPS-EB concentration reaching saturation of solid-phase IFI16” value (IFI16 [4]; 2 μg/ml IFI16 coated) was 100,000 ng/ml.

With “detoxified LPS from Escherichia coli O111:B4 [detoxLPS]” the “Competition for IFI16 binding” value (IFI16 [2]) was “did not interfere”.

For polymyxin B [PMB], the “Effect of PMB pre-treatment of immobilized LPS / lipid A on IFI16 binding” value (IFI16 [1]; 10 μg/ml PMB) was “completely abolished IFI16 binding; also recorded: no signal was detected” and the “Effect of PMB pre-incubated with biotin-LPS-EB on IFI16/LPS binding” value (IFI16 [4]; 10 μg/ml PMB, IFI16-coated wells) was “completely prevented IFI16 from binding to LPS”.
